Measurements taken from ChEMBL document CHEMBL4813934, “Investigation of Selected Flavonoid Derivatives as Potent FLT3 Inhibitors for the Potential Treatment of Acute Myeloid Leukemia” (J Nat Prod, 2021).
pIC50: −log10 of the molar value. The source made the active and inactive calls. No cut-off for these calls is given here.

Experiments:
[1] = target: Receptor-type tyrosine-protein kinase FLT3 (Homo sapiens) (UniProt P36888); experiment: Inhibition of recombinant His-tagged human FLT3 (564 to 958 residues) expressed in baculovirus expression system at 10 uM using tyr 02 as substrate incubated for 1 hr by Z'-LYTE assay relative to control
[2] = system: MOLM-13; experiment: Cell cycle arrest in human MOLM-13 cells assessed as accumulation at G0/G1 phase at 0.3 to 3 uM measured after 72 hrs by propidium iodide/RNaseA staining based flow cytometry analysis; type: functional; details: dose 0.3-3 µM
[3] = target: Receptor-type tyrosine-protein kinase FLT3 (Homo sapiens, UniProt P36888, ITD); experiment: Inhibition of recombinant N-terminal GST/His6-tagged human FLT3 ITD mutant (571 to 993 residues) expressed in Sf9 insect cells incubated for 1 hr by LanthaScreen assay
[4] = target: Receptor-type tyrosine-protein kinase FLT3 (Homo sapiens, UniProt P36888, D835Y); experiment: Inhibition of recombinant His-tagged human FLT3 D835Y mutant (564 to 958 residues) expressed in baculovirus expression system using tyr 02 as substrate incubated for 1 hr by Z'-LYTE assay
[5] = system: MOLM-13; experiment: Cytotoxicity against human MOLM-13 cells assessed as reduction in cell viability measured after 72 hrs by MTT assay; type: functional, cell-based; details: MOLM-13, 72 h
[6] = system: MV4-11; experiment: Cell cycle arrest in human MV4-11 cells assessed as increase in accumulation at sub-G1 phase at 30 uM measured after 72 hrs by propidium iodide/RNaseA staining based flow cytometry analysis; type: functional
[7] = system: MV4-11; experiment: Cytotoxicity against human MV4-11 cells assessed as reduction in cell viability measured after 72 hrs by MTT assay; type: functional, cell-based; details: MV4-11, 72 h
[8] = target: T1, Receptor-type tyrosine-protein kinase FLT3 (Homo sapiens, UniProt P36888); experiment: Inhibition of recombinant His-tagged human FLT3 (564 to 958 residues) expressed in baculovirus expression system using tyr 02 as substrate incubated for 1 hr by Z'-LYTE assay
T1 sequence (P36888 whole entry): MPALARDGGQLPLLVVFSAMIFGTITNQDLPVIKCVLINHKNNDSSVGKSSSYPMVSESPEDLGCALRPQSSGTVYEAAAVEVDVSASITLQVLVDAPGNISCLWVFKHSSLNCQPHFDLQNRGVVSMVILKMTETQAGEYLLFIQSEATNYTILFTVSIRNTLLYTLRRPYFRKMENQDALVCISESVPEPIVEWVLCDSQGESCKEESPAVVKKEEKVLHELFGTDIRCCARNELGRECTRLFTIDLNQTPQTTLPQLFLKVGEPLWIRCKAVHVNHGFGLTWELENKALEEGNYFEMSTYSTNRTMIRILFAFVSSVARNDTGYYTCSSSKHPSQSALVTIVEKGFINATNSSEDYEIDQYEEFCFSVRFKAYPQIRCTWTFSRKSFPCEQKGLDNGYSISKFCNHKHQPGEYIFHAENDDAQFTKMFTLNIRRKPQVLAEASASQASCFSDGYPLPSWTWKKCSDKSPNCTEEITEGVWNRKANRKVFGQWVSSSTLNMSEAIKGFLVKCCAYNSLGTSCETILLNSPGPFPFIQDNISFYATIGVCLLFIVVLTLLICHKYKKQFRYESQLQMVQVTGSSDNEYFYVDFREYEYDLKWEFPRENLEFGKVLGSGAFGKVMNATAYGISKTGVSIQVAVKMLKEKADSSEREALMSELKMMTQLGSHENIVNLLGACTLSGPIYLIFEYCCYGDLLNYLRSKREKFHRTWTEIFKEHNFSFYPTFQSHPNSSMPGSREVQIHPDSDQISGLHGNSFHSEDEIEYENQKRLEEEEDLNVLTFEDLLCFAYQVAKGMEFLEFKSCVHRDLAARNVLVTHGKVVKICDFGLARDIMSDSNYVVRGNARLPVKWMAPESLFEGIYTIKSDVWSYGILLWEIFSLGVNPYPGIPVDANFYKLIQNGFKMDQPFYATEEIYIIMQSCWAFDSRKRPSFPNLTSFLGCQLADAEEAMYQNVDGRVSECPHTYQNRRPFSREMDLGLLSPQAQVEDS

[9] = system: MOLM-13; experiment: Cell cycle arrest in human MOLM-13 cells assessed as accumulation at sub-G1 phase at 10 uM measured after 72 hrs by propidium iodide/RNaseA staining based flow cytometry analysis (reference value: 13.76 %); type: functional
[10] = system: MOLM-13; experiment: Cell cycle arrest in human MOLM-13 cells assessed as accumulation at G2/M phase at 30 uM measured after 72 hrs by propidium iodide/RNaseA staining based flow cytometry analysis (reference value: 20.36 %); type: functional
[11] = system: MV4-11; experiment: Cell cycle arrest in human MV4-11 cells assessed as accumulation at G0/G1 phase at 3 uM measured after 72 hrs by propidium iodide/RNaseA staining based flow cytometry analysis (reference value: 50.06 %); type: functional
[12] = system: MV4-11; experiment: Cell cycle arrest in human MV4-11 cells assessed as accumulation at G2/M phase at 3 uM measured after 72 hrs by propidium iodide/RNaseA staining based flow cytometry analysis (reference value: 26.26 %); type: functional
[13] = system: MV4-11; experiment: Cell cycle arrest in human MV4-11 cells assessed as accumulation at S phase at 30 uM measured after 72 hrs by propidium iodide/RNaseA staining based flow cytometry analysis (reference value: 17.51 %); type: functional
[14] = system: MV4-11; experiment: Cell cycle arrest in human MV4-11 cells assessed as accumulation at sub-G1 phase at 3 uM measured after 72 hrs by propidium iodide/RNaseA staining based flow cytometry analysis (reference value: 7.43 %); type: functional
[15] = system: MV4-11; experiment: Cell cycle arrest in human MV4-11 cells assessed as accumulation at G2/M phase at 30 uM measured after 72 hrs by propidium iodide/RNaseA staining based flow cytometry analysis (reference value: 26.26 %); type: functional
[16] = system: MV4-11; experiment: Cell cycle arrest in human MV4-11 cells assessed as accumulation at sub-G1 phase at 0.3 uM measured after 72 hrs by propidium iodide/RNaseA staining based flow cytometry analysis (reference value: 7.43 %); type: functional
[17] = system: MOLM-13; experiment: Cell cycle arrest in human MOLM-13 cells assessed as accumulation at sub-G1 phase at 3 uM measured after 72 hrs by propidium iodide/RNaseA staining based flow cytometry analysis (reference value: 13.76 %); type: functional
[18] = system: MV4-11; experiment: Cell cycle arrest in human MV4-11 cells assessed as accumulation at G2/M phase at 0.3 uM measured after 72 hrs by propidium iodide/RNaseA staining based flow cytometry analysis (reference value: 26.26 %); type: functional
[19] = system: MV4-11; experiment: Cell cycle arrest in human MV4-11 cells assessed as accumulation at G0/G1 phase at 10 uM measured after 72 hrs by propidium iodide/RNaseA staining based flow cytometry analysis (reference value: 50.06 %); type: functional
[20] = system: MV4-11; experiment: Cell cycle arrest in human MV4-11 cells assessed as accumulation at G2/M phase at 10 uM measured after 72 hrs by propidium iodide/RNaseA staining based flow cytometry analysis (reference value: 26.26 %); type: functional
[21] = system: MOLM-13; experiment: Cell cycle arrest in human MOLM-13 cells assessed as accumulation at G0/G1 phase at 30 uM measured after 72 hrs by propidium iodide/RNaseA staining based flow cytometry analysis (reference value: 53.92 %); type: functional
[22] = system: MOLM-13; experiment: Cell cycle arrest in human MOLM-13 cells assessed as accumulation at S phase at 30 uM measured after 72 hrs by propidium iodide/RNaseA staining based flow cytometry analysis (reference value: 11.14 %); type: functional
[23] = system: MOLM-13; experiment: Cell cycle arrest in human MOLM-13 cells assessed as accumulation at S phase at 3 uM measured after 72 hrs by propidium iodide/RNaseA staining based flow cytometry analysis (reference value: 11.14 %); type: functional
[24] = system: MOLM-13; experiment: Cell cycle arrest in human MOLM-13 cells assessed as accumulation at sub-G1 phase at 30 uM measured after 72 hrs by propidium iodide/RNaseA staining based flow cytometry analysis (reference value: 13.76 %); type: functional
[25] = system: MOLM-13; experiment: Cell cycle arrest in human MOLM-13 cells assessed as accumulation at G2/M phase at 3 uM measured after 72 hrs by propidium iodide/RNaseA staining based flow cytometry analysis (reference value: 20.36 %); type: functional
[26] = system: MV4-11; experiment: Cell cycle arrest in human MV4-11 cells assessed as accumulation at S phase at 3 uM measured after 72 hrs by propidium iodide/RNaseA staining based flow cytometry analysis (reference value: 17.51 %); type: functional
[27] = system: MV4-11; experiment: Cell cycle arrest in human MV4-11 cells assessed as accumulation at sub-G1 phase at 10 uM measured after 72 hrs by propidium iodide/RNaseA staining based flow cytometry analysis (reference value: 7.43 %); type: functional
[28] = system: MOLM-13; experiment: Cell cycle arrest in human MOLM-13 cells assessed as accumulation at G2/M phase at 0.3 uM measured after 72 hrs by propidium iodide/RNaseA staining based flow cytometry analysis (reference value: 20.36 %); type: functional
[29] = system: MOLM-13; experiment: Cell cycle arrest in human MOLM-13 cells assessed as accumulation at G0/G1 phase at 0.3 uM measured after 72 hrs by propidium iodide/RNaseA staining based flow cytometry analysis (reference value: 53.92 %); type: functional
[30] = system: MOLM-13; experiment: Cell cycle arrest in human MOLM-13 cells assessed as accumulation at S phase at 0.3 uM measured after 72 hrs by propidium iodide/RNaseA staining based flow cytometry analysis (reference value: 11.14 %); type: functional
[31] = system: MV4-11; experiment: Cell cycle arrest in human MV4-11 cells assessed as accumulation at S phase at 10 uM measured after 72 hrs by propidium iodide/RNaseA staining based flow cytometry analysis (reference value: 17.51 %); type: functional
[32] = system: MOLM-13; experiment: Cell cycle arrest in human MOLM-13 cells assessed as accumulation at G0/G1 phase at 3 uM measured after 72 hrs by propidium iodide/RNaseA staining based flow cytometry analysis (reference value: 53.92 %); type: functional
[33] = system: MV4-11; experiment: Cell cycle arrest in human MV4-11 cells assessed as accumulation at G0/G1 phase at 0.3 uM measured after 72 hrs by propidium iodide/RNaseA staining based flow cytometry analysis (reference value: 50.06 %); type: functional
[34] = system: MV4-11; experiment: Cell cycle arrest in human MV4-11 cells assessed as accumulation at S phase at 0.3 uM measured after 72 hrs by propidium iodide/RNaseA staining based flow cytometry analysis (reference value: 17.51 %); type: functional
[35] = system: MOLM-13; experiment: Cell cycle arrest in human MOLM-13 cells assessed as accumulation at S phase at 10 uM measured after 72 hrs by propidium iodide/RNaseA staining based flow cytometry analysis (reference value: 11.14 %); type: functional
[36] = system: MOLM-13; experiment: Cell cycle arrest in human MOLM-13 cells assessed as accumulation at sub-G1 phase at 0.3 uM measured after 72 hrs by propidium iodide/RNaseA staining based flow cytometry analysis (reference value: 13.76 %); type: functional
[37] = system: MV4-11; experiment: Cell cycle arrest in human MV4-11 cells assessed as accumulation at G0/G1 phase at 30 uM measured after 72 hrs by propidium iodide/RNaseA staining based flow cytometry analysis (reference value: 50.06 %); type: functional
[38] = system: MOLM-13; experiment: Cell cycle arrest in human MOLM-13 cells assessed as accumulation at G0/G1 phase at 10 uM measured after 72 hrs by propidium iodide/RNaseA staining based flow cytometry analysis (reference value: 53.92 %); type: functional
[39] = system: MV4-11; experiment: Cell cycle arrest in human MV4-11 cells assessed as accumulation at sub-G1 phase at 30 uM measured after 72 hrs by propidium iodide/RNaseA staining based flow cytometry analysis (reference value: 7.43 %); type: functional
[40] = system: MOLM-13; experiment: Cell cycle arrest in human MOLM-13 cells assessed as accumulation at G2/M phase at 10 uM measured after 72 hrs by propidium iodide/RNaseA staining based flow cytometry analysis (reference value: 20.36 %); type: functional

Q: Which inhibition [1] does the source give for `COc1c(O)cc2oc(-c3ccc(O)cc3)cc(=O)c2c1O` [HISPIDULIN] here?
A: Its inhibition is over 80%.

Q: And the Activity [2]?
A: The Activity was “Active”.

Q: And the pIC50 [3]?
A: The pIC50 was 6.41.

Q: And the pIC50 [4]?
A: Its pIC50 is 6.64.

Q: And the pIC50 [5]?
A: Its pIC50 is 5.15.

Q: What about the Activity [6] of the same molecule?
A: Its Activity is “Active”.

Q: What about the pIC50 [7] of the same molecule?
A: Its pIC50 is 5.17.

Q: What about the pIC50 [8] of the same molecule?
A: Its pIC50 is 6.36.

Q: Which results are given for `COc1ccc(-c2cc(=O)c3c(O)c(OC)c(O)cc3o2)cc1` [PECTOLINARIGENIN]?
A: inhibition [1]: > 80%; pIC50 [3]: 6.06; pIC50 [4]: 6.24; pIC50 [5]: 5.23; pIC50 [7]: 5.10; pIC50 [8]: 6.19

Q: What does the source list for `COc1ccc(-c2cc(=O)c3c(O)c(OC)c(OC)cc3o2)cc1` [SALVIGENIN]?
A: Activity [9]: 40.89%; Activity [10]: 11.69%; inhibition [1]: > 80%; Activity [2]: Active; pIC50 [3]: 6.24; Activity [11]: 70.55%; Activity [12]: 14.37%; Activity [13]: 5.91%; Activity [14]: 6.83%; Activity [15]: 11.25%; Activity [16]: 6.78%; Activity [17]: 19.21%; Activity [18]: 25.07%; Activity [19]: 69.17%; pIC50 [4]: 6.54; pIC50 [5]: 5.59; Activity [20]: 10.19%; Activity [21]: 40.99%; Activity [22]: 4.05%; Activity [23]: 5.26%; Activity [24]: 43.19%; Activity [25]: 15.19%; Activity [26]: 8.74%; Activity [27]: 14.62%; Activity [6]: Active; Activity [28]: 20.25%; Activity [29]: 59.22%; Activity [30]: 10.48%; pIC50 [7]: 5.59; Activity [31]: 6.62%; Activity [32]: 59.78%; Activity [33]: 50.11%; Activity [34]: 20.59%; Activity [35]: 5.4%; Activity [36]: 9.93%; Activity [37]: 73.88%; Activity [38]: 42.74%; Activity [39]: 9.4%; Activity [40]: 11.15%; pIC50 [8]: 6.26
